From PubChem BioAssay (NCI)
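Five compound concentrations were applied to cells in 96-well plates for 48 hours; endpoints were derived by simple linear interpolation of the resulting dose-response curve. TGI: total growth inhibition.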

Assays:
Experiment in all cases: NCI-60 cell line screen, 48 h
SK-MEL-5 melanoma = tested on: SK-MEL-5 melanoma
SNB-75 CNS = tested on: SNB-75 CNS
PC-3 prostate = tested on: PC-3 prostate
SR leukemia = tested on: SR leukemia
HOP-92 NSCLC = tested on: HOP-92 NSCLC
RPMI-8226 leukemia = tested on: RPMI-8226 leukemia
SF-295 CNS = tested on: SF-295 CNS
M14 melanoma = tested on: M14 melanoma
OVCAR-3 ovarian = tested on: OVCAR-3 ovarian
UACC-62 melanoma = tested on: UACC-62 melanoma
MDA-MB-231 breast = tested on: MDA-MB-231 breast
ACHN renal = tested on: ACHN renal
EKVX NSCLC = tested on: EKVX NSCLC
COLO 205 colon = tested on: COLO 205 colon
MCF7 breast = tested on: MCF7 breast
A549 NSCLC = tested on: A549 NSCLC
IGROV1 ovarian = tested on: IGROV1 ovarian
HOP-62 NSCLC = tested on: HOP-62 NSCLC
HCT-116 colon = tested on: HCT-116 colon
NCI/ADR-RES ovarian = tested on: NCI/ADR-RES ovarian
UACC-257 melanoma = tested on: UACC-257 melanoma
A498 renal = tested on: A498 renal
OVCAR-8 ovarian = tested on: OVCAR-8 ovarian
MDA-N = tested on: MDA-N
U251 CNS = tested on: U251 CNS
T-47D breast = tested on: T-47D breast
HT29 colon = tested on: HT29 colon
NCI-H522 lung = tested on: NCI-H522 lung
SN12C renal = tested on: SN12C renal
786-0 renal = tested on: 786-0 renal
HCC-2998 colon = tested on: HCC-2998 colon
LOX IMVI melanoma = tested on: LOX IMVI melanoma
NCI-H226 lung = tested on: NCI-H226 lung
OVCAR-5 ovarian = tested on: OVCAR-5 ovarian
HCT-15 colon = tested on: HCT-15 colon
UO-31 renal = tested on: UO-31 renal
HL-60(TB) leukemia = tested on: HL-60(TB) leukemia
DU-145 prostate = tested on: DU-145 prostate
OVCAR-4 ovarian = tested on: OVCAR-4 ovarian
NCI-H460 lung = tested on: NCI-H460 lung
SW-620 colon = tested on: SW-620 colon
MOLT-4 leukemia = tested on: MOLT-4 leukemia
NCI-H23 lung = tested on: NCI-H23 lung
CCRF-CEM leukemia = tested on: CCRF-CEM leukemia
MALME-3M melanoma = tested on: MALME-3M melanoma
TK-10 renal = tested on: TK-10 renal
RXF 393 renal = tested on: RXF 393 renal
SK-MEL-2 melanoma = tested on: SK-MEL-2 melanoma
KM12 colon = tested on: KM12 colon
SF-268 CNS = tested on: SF-268 CNS
SK-MEL-28 melanoma = tested on: SK-MEL-28 melanoma
CAKI-1 renal = tested on: CAKI-1 renal
BT-549 breast = tested on: BT-549 breast
HS 578T breast = tested on: HS 578T breast
K-562 leukemia = tested on: K-562 leukemia
SNB-19 CNS = tested on: SNB-19 CNS
MDA-MB-435 = tested on: MDA-MB-435
SK-OV-3 ovarian = tested on: SK-OV-3 ovarian
SF-539 CNS = tested on: SF-539 CNS

## COC(=O)c1c(O)ccc2c1c1cc3ccccc3cc1n2Cc1cc(OC)cc(OC)c1
SK-MEL-5 melanoma
  TGI: 18.5 µM
SNB-75 CNS
  TGI: 8.94 µM
PC-3 prostate
  TGI: > 32.6 µM
SR leukemia
  TGI: > 100 µM
HOP-92 NSCLC
  TGI: > 100 µM
RPMI-8226 leukemia
  TGI: > 26.3 µM
SF-295 CNS
  TGI: 7.18 µM
M14 melanoma
  TGI: > 100 µM
OVCAR-3 ovarian
  TGI: 2.45 µM
UACC-62 melanoma
  TGI: > 100 µM
MDA-MB-231 breast
  TGI: > 100 µM
ACHN renal
  TGI: > 100 µM
EKVX NSCLC
  TGI: > 100 µM
COLO 205 colon
  TGI: > 36.1 µM
MCF7 breast
  TGI: > 100 µM
A549 NSCLC
  TGI: > 100 µM
IGROV1 ovarian
  TGI: 1.69 µM
HOP-62 NSCLC
  TGI: > 100 µM
HCT-116 colon
  TGI: > 100 µM
NCI/ADR-RES ovarian
  TGI: > 29.2 µM
UACC-257 melanoma
  TGI: > 100 µM
A498 renal
  TGI: > 34.3 µM
OVCAR-8 ovarian
  TGI: > 100 µM
MDA-N
  TGI: 3.72 µM
U251 CNS
  TGI: > 100 µM
T-47D breast
  TGI: > 63.4 µM
HT29 colon
  TGI: > 48.1 µM
NCI-H522 lung
  TGI: 0.415 µM
SN12C renal
  TGI: > 100 µM
786-0 renal
  TGI: > 100 µM
HCC-2998 colon
  TGI: > 100 µM
LOX IMVI melanoma
  TGI: > 100 µM
NCI-H226 lung
  TGI: > 100 µM
OVCAR-5 ovarian
  TGI: > 100 µM
HCT-15 colon
  TGI: > 100 µM
UO-31 renal
  TGI: > 100 µM
HL-60(TB) leukemia
  TGI: 30.6 µM
DU-145 prostate
  TGI: 59.1 µM
OVCAR-4 ovarian
  TGI: > 66.9 µM
NCI-H460 lung
  TGI: > 100 µM
SW-620 colon
  TGI: > 100 µM
MOLT-4 leukemia
  TGI: > 100 µM
NCI-H23 lung
  TGI: > 100 µM
CCRF-CEM leukemia
  TGI: > 100 µM
MALME-3M melanoma
  TGI: 64.3 µM
TK-10 renal
  TGI: > 100 µM
RXF 393 renal
  TGI: > 26.5 µM
SK-MEL-2 melanoma
  TGI: 24.6 µM
KM12 colon
  TGI: > 27.1 µM
SF-268 CNS
  TGI: > 26.9 µM
SK-MEL-28 melanoma
  TGI: > 100 µM
CAKI-1 renal
  TGI: > 28.4 µM
BT-549 breast
  TGI: > 100 µM
HS 578T breast
  TGI: 8.5 µM
K-562 leukemia
  TGI: > 100 µM
SNB-19 CNS
  TGI: > 100 µM
MDA-MB-435
  TGI: 1.86 µM

## O=C(O)CCCCn1ccc(=O)[nH]c1=O
SK-MEL-5 melanoma
  TGI: > 100 µM
SNB-75 CNS
  TGI: > 100 µM
PC-3 prostate
  TGI: > 100 µM
SR leukemia
  TGI: > 100 µM
RPMI-8226 leukemia
  TGI: > 100 µM
SF-295 CNS
  TGI: > 100 µM
M14 melanoma
  TGI: > 100 µM
OVCAR-3 ovarian
  TGI: > 100 µM
UACC-62 melanoma
  TGI: > 100 µM
MDA-MB-231 breast
  TGI: > 100 µM
ACHN renal
  TGI: > 100 µM
EKVX NSCLC
  TGI: > 100 µM
COLO 205 colon
  TGI: > 100 µM
MCF7 breast
  TGI: > 100 µM
A549 NSCLC
  TGI: > 100 µM
IGROV1 ovarian
  TGI: > 100 µM
SK-OV-3 ovarian
  TGI: > 100 µM
SF-539 CNS
  TGI: > 100 µM
HOP-62 NSCLC
  TGI: > 100 µM
HCT-116 colon
  TGI: > 100 µM
NCI/ADR-RES ovarian
  TGI: > 100 µM
UACC-257 melanoma
  TGI: > 100 µM
A498 renal
  TGI: > 100 µM
OVCAR-8 ovarian
  TGI: > 100 µM
MDA-N
  TGI: > 100 µM
U251 CNS
  TGI: > 100 µM
T-47D breast
  TGI: > 100 µM
HT29 colon
  TGI: > 100 µM
NCI-H522 lung
  TGI: > 100 µM
SN12C renal
  TGI: > 100 µM
786-0 renal
  TGI: > 100 µM
HCC-2998 colon
  TGI: > 100 µM
LOX IMVI melanoma
  TGI: > 100 µM
NCI-H226 lung
  TGI: > 100 µM
OVCAR-5 ovarian
  TGI: > 100 µM
HCT-15 colon
  TGI: > 100 µM
UO-31 renal
  TGI: > 100 µM
HL-60(TB) leukemia
  TGI: > 100 µM
DU-145 prostate
  TGI: > 100 µM
OVCAR-4 ovarian
  TGI: > 100 µM
NCI-H460 lung
  TGI: > 100 µM
SW-620 colon
  TGI: > 100 µM
MOLT-4 leukemia
  TGI: > 100 µM
NCI-H23 lung
  TGI: > 100 µM
CCRF-CEM leukemia
  TGI: > 100 µM
MALME-3M melanoma
  TGI: > 100 µM
TK-10 renal
  TGI: > 100 µM
RXF 393 renal
  TGI: > 100 µM
SK-MEL-2 melanoma
  TGI: > 100 µM
KM12 colon
  TGI: > 100 µM
SF-268 CNS
  TGI: > 100 µM
SK-MEL-28 melanoma
  TGI: > 100 µM
CAKI-1 renal
  TGI: > 100 µM
BT-549 breast
  TGI: > 100 µM
HS 578T breast
  TGI: > 100 µM
K-562 leukemia
  TGI: > 100 µM
SNB-19 CNS
  TGI: > 100 µM
MDA-MB-435
  TGI: > 100 µM

## CC(C)(C)NC1=NC(C(F)(F)F)(C(F)(F)F)NC(=O)N1
SK-MEL-5 melanoma
  TGI: 80.5 µM
SNB-75 CNS
  TGI: > 100 µM
PC-3 prostate
  TGI: > 100 µM
SR leukemia
  TGI: > 100 µM
HOP-92 NSCLC
  TGI: > 100 µM
RPMI-8226 leukemia
  TGI: > 100 µM
SF-295 CNS
  TGI: > 100 µM
M14 melanoma
  TGI: > 100 µM
OVCAR-3 ovarian
  TGI: > 100 µM
UACC-62 melanoma
  TGI: > 100 µM
MDA-MB-231 breast
  TGI: > 100 µM
ACHN renal
  TGI: > 100 µM
EKVX NSCLC
  TGI: > 100 µM
MCF7 breast
  TGI: > 100 µM
A549 NSCLC
  TGI: > 100 µM
IGROV1 ovarian
  TGI: > 100 µM
SK-OV-3 ovarian
  TGI: > 100 µM
SF-539 CNS
  TGI: > 100 µM
HOP-62 NSCLC
  TGI: > 100 µM
HCT-116 colon
  TGI: > 100 µM
NCI/ADR-RES ovarian
  TGI: > 100 µM
UACC-257 melanoma
  TGI: > 100 µM
OVCAR-8 ovarian
  TGI: > 100 µM
MDA-N
  TGI: > 100 µM
U251 CNS
  TGI: > 100 µM
T-47D breast
  TGI: > 100 µM
HT29 colon
  TGI: > 100 µM
SN12C renal
  TGI: > 100 µM
786-0 renal
  TGI: > 100 µM
HCC-2998 colon
  TGI: 79 µM
LOX IMVI melanoma
  TGI: > 100 µM
NCI-H226 lung
  TGI: > 100 µM
OVCAR-5 ovarian
  TGI: > 100 µM
HCT-15 colon
  TGI: > 100 µM
UO-31 renal
  TGI: > 100 µM
HL-60(TB) leukemia
  TGI: 59.6 µM
DU-145 prostate
  TGI: > 100 µM
OVCAR-4 ovarian
  TGI: > 100 µM
NCI-H460 lung
  TGI: > 100 µM
SW-620 colon
  TGI: > 100 µM
MOLT-4 leukemia
  TGI: > 100 µM
NCI-H23 lung
  TGI: > 100 µM
CCRF-CEM leukemia
  TGI: > 100 µM
MALME-3M melanoma
  TGI: > 100 µM
TK-10 renal
  TGI: > 100 µM
RXF 393 renal
  TGI: > 100 µM
SK-MEL-2 melanoma
  TGI: > 100 µM
KM12 colon
  TGI: > 100 µM
SF-268 CNS
  TGI: > 100 µM
SK-MEL-28 melanoma
  TGI: > 100 µM
CAKI-1 renal
  TGI: > 100 µM
BT-549 breast
  TGI: > 100 µM
HS 578T breast
  TGI: > 100 µM
K-562 leukemia
  TGI: > 100 µM
SNB-19 CNS
  TGI: > 100 µM
MDA-MB-435
  TGI: > 100 µM
